Results on 19 compounds are retold here after US7939672B2, “Phenylacetate derivatives or pharmaceutically acceptable salts thereof, preparation method thereof and composition for prevention or treatment of diseases induced by activation of T-type calcium ion channel containing the same as an active ingredient” (Korea Institute of Science and Technology, priority 2008, dated 2011).

The target in test [1] is T1, α1G T-type calcium ion channels (Homo sapiens, UniProt O43497).
T1 construct: host or cells: HEK293
The experiment in a line: Ion current inhibition on T-type calcium ion channels using a patch clamp (HEK293 cells). Type of test: cell-based. The procedure:
Measurement of Ion Current Inhibition on T-Type Calcium Ion Channels Using a Patch Clamp
(1) Cell Culture and Preparation
20 hours prior to the use of the medium for expression of hERG channels, the Tet-expression system was activated by treating the medium with 1 μg/ml doxycycline.
The cells in the experiment was passaged once in three days, and collected when the cells were grown to 50˜80% confluency in the Petri dish. […] Trypsin was removed using a centrifuge, an extracellular solution was added, and cells floating automatically by a Patchliner were used at room temperature.
(2) Experimental Solution
As a solution composition for measurement of activation of T-type calcium ion channels, 140 mM NaCl, 2 mM CaCl2, 4 mM KCl, 1 mM MgCl2, 5 mM D-glucose, and 10 mM HEPES (pH 7.4) were used for an extracellular solution, and 50 mM KCl, 10 mM NaCl, 60 mM KF, 2 mM MgCl2, 10 mM HEPES, and 20 mM EGTA (pH 7.2) were used for an intracellular solution. To maintain the pre-cellular state, a seal reinforced solution was added. When T-type calcium ion channel expression cells were used, an extracellular solution supplemented with 10 mM Ba^2+ was added and records about the result were made.
(3) Electro-Physiological Technique and Data Processing
The current was measured through an EPC10 amplifier (HEKA, Germany) by a precellular patch clamp technique using NPC©-16 Patchliner (Nanion Technologies, Germany). Cell suspensions and various experimental solutions were automatically aliquotted into chips (NPC-16 Chip, Nanion Technologies, Germany) by experimental devices. A cell membrane potential was fixed at −100 mV for measurement of activation of T-type calcium ion channels. When a low polarization was performed at −20 mV for 300 ms, the inward current was measured at ten-second intervals.
The IC50 graphs and values were obtained from the automatic calculation of inhibition rates of the peak current using an experimental data analysis program IGOR Pro (WaveMetrics, USA).
(In general: In patch-clamp work, channel activity is measured electrically.)

Test [2] relates to spinal nerve ligation animal model. The settings on record: Barton et al. 2005; cited from earlier work.
Test [3] relates to T-type calcium ion channel. The settings on record: T-type versus L-type; cited from earlier work.
Where [4] appears, read: patch clamp, HEK293 α1G cells, unit nM, read-out: IC50 (μM), cells marked.
Where [5] appears, read: read-out: % inhibition rate (10 μM), 10 μM, peak inward current, HEK293 cells expressing α1G T-type channel.
Where [6] appears, read: patch clamp, HEK293 α1G cells, 10 nM to 100 μM, read-out: IC50.

Where two headings read alike, the source gives them in different places.

T1 sequence (O43497 whole entry): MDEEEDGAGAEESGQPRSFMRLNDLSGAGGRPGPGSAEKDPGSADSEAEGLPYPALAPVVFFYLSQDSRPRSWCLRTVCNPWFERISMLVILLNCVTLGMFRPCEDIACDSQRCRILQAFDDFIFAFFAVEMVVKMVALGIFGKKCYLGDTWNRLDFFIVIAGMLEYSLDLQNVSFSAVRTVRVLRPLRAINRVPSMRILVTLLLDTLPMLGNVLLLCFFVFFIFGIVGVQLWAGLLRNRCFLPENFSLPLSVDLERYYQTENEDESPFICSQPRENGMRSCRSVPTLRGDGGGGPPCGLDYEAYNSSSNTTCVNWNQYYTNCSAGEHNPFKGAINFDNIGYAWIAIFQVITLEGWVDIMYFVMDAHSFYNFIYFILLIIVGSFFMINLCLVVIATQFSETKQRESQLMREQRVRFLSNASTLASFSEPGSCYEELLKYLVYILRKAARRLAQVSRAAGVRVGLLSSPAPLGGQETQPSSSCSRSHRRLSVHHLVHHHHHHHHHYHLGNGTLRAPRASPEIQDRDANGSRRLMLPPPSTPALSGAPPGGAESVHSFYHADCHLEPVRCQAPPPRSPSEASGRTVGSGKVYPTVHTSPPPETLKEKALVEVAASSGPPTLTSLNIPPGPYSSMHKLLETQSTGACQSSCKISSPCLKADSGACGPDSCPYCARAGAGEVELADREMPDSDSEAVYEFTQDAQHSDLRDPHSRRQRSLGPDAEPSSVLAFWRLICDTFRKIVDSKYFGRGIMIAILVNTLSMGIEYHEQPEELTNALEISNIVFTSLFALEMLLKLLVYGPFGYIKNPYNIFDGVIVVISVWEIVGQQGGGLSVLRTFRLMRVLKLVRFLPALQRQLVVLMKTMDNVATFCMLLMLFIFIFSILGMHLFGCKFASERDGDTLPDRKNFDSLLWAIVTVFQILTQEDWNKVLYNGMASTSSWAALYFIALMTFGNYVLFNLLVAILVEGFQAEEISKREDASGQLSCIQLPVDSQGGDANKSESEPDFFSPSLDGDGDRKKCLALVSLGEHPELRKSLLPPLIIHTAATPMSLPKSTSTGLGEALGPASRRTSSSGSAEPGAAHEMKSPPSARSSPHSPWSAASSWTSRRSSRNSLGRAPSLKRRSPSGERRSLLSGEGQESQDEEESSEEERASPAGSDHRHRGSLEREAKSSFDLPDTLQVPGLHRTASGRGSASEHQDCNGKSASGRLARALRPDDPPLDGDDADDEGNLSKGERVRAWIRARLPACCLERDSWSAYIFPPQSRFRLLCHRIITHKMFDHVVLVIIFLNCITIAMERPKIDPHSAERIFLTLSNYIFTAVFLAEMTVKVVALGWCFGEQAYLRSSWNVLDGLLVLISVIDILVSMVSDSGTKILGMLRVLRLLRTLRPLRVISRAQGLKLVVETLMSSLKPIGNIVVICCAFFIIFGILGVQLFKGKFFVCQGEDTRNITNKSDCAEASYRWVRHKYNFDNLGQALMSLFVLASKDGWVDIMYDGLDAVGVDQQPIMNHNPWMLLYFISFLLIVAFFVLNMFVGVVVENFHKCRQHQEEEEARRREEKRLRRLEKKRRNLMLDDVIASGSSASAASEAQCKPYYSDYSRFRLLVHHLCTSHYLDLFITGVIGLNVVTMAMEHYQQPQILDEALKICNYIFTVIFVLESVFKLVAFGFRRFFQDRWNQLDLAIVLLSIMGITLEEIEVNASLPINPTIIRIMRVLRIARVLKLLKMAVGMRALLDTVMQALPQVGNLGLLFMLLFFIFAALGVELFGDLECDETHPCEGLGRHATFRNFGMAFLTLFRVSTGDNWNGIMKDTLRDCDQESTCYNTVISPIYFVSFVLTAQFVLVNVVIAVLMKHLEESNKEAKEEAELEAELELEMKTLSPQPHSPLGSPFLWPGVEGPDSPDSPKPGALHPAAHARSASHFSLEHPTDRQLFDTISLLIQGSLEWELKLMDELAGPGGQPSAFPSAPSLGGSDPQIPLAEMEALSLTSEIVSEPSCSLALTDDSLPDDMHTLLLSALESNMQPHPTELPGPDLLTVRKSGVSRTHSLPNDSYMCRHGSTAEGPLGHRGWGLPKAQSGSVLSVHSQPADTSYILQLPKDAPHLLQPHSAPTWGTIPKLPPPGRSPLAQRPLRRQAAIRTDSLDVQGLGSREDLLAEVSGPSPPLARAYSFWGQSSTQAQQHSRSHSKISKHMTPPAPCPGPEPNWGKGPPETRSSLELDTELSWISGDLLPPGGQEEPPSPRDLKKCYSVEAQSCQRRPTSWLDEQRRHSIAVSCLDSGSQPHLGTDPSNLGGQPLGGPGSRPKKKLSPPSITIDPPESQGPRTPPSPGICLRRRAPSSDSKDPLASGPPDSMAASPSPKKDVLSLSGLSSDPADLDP

Consider `COC(=O)C(CCCN(C)CCCc1nc2ccccc2[nH]1)(c1ccc(Br)cc1)C(C)C` (centres unmarked) [Embodiment 1, 5-{[3-(1H-benzimidazole-2-yl)propyl]methylamino}-2-(4-bromophenyl)-2-isopropylpentanoic acid methyl ester], for which the IC50 (usually the midpoint of a concentration-inhibition curve) in test [1] (setting [4]) amounted to 8.17 ± 0.48 nM. Besides, the inhibition (as a rule, the relative decrease from the control value, in per cent) at 10 µM in test [1] (setting [5]) was 96.9 ± 0.59%.

In the case of `COC(=O)C(CCCN(C)CCCc1nc2ccccc2[nH]1)(c1ccc(OC)cc1)C(C)C` (centres unmarked) [Embodiment 4], in test [1] (setting [6]), the IC50 was 190 ± 1 nM. In addition, the inhibition at 10 µM in test [1] (setting [5]) was determined as 93.5 ± 3.2%.

As for `COC(=O)C(CCCN(C)CCCc1nc2cc(OC)ccc2[nH]1)(c1ccc(OC)cc1)C(C)C` (centres unmarked) [Embodiment 5], the IC50 in test [1] (setting [6]) was 880 ± 70 nM. In addition, in test [1] (setting [5]), the inhibition at 10 µM stood at 91.7 ± 1.9%.

Take `CCOC(=O)C(CCCN(C)CCCc1nc2ccccc2[nH]1)(c1ccccc1)C(C)C` (centres unmarked) [Embodiment 10]: in test [1] (setting [6]), the IC50 stood at 250 ± 5 nM. Also, in test [1] (setting [5]), the inhibition at 10 µM worked out at 98.3 ± 0.9%.

For the compound `CCOC(=O)C(CCCN(C)CCCc1nc2cc(C)c(C)cc2[nH]1)(c1ccccc1)C(C)C` (centres unmarked) [Embodiment 11], in test [1] (setting [6]), the IC50 worked out at 100 ± 10 nM. The inhibition at 10 µM in test [1] (setting [5]) was 91.4 ± 0.4%.

Consider `COC(=O)C(CCCN(C)CCCc1nc2cc(C)c(C)cc2[nH]1)(c1ccc(Br)cc1)C(C)C` (centres unmarked) [Embodiment 12], for which the IC50 in test [1] (setting [4]) came out at 53 ± 4.87 nM. Further, the inhibition at 10 µM in test [1] (setting [5]) stood at 94.2 ± 0.4%.

In the case of `COC(=O)C(CCCN(C)CCCc1nc2cc(OC)ccc2[nH]1)(c1ccc(Br)cc1)C(C)C` (centres unmarked) [Embodiment 13], in test [1] (setting [6]), the IC50 amounted to 250 ± 10 nM. Further, in test [1] (setting [5]), the inhibition at 10 µM turned out to be 94.5 ± 1.2%.

Consider `CCOC(=O)C(CCCN1CCN(Cc2ccc(OC)cc2)CC1)(c1ccccc1)C(C)C` (centres unmarked) [Embodiment 23, ethyl 2-isopropyl-5-(4-(4-methoxybenzyl)piperazine-1-yl)-2-phenylpentanoate], for which, in test [1] (setting [6]), the IC50 amounted to 340 ± 20 nM. Also, in test [1] (setting [5]), the inhibition at 10 µM is 96.3 ± 1.7%.

Consider `CCOC(=O)C(CCCN1CCN(Cc2ccc(F)cc2)CC1)(c1ccccc1)C(C)C` (centres unmarked) [Embodiment 26, ethyl 5-(4-(4-fluorobenzyl)piperazine-1-yl)-2-isopropyl-2-phenylpentanoate], for which the IC50 in test [1] (setting [6]) was 260 ± 30 nM. Also, the inhibition at 10 µM in test [1] (setting [5]) is 94 ± 2.5%.

Consider `COC(=O)C(CCCN1CCN(Cc2ccccc2F)CC1)(c1ccc(Br)cc1)C(C)C` (centres unmarked) [Embodiment 30, methyl 2-(4-bromophenyl)-5-(4-(2-fluorobenzyl)piperazine-1-yl)-2-isopropylpentanoate], for which the IC50 in test [1] (setting [6]) came out at 740 ± 20 nM. Besides, the inhibition at 10 µM in test [1] (setting [5]) turned out to be 90.4 ± 3.2%.

As to `COC(=O)C(CCCN1CCN(Cc2cccc(F)c2)CC1)(c1ccc(Br)cc1)C(C)C` (centres unmarked) [Embodiment 31, methyl 2-(4-bromophenyl)-5-(4-(3-fluorobenzyl)piperazine-1-yl)-2-isopropylpentanoate], in test [1] (setting [6]), the IC50 came out at 980 ± 110 nM. For the same compound, the inhibition at 10 µM in test [1] (setting [5]) was 89.3 ± 1.6%.

As for `COC(=O)C(CCCN1CCN(Cc2ccc(F)cc2)CC1)(c1ccc(Br)cc1)C(C)C` (centres unmarked) [Embodiment 32, methyl 2-(4-bromophenyl)-5-(4-(4-fluorobenzyl)piperazine-1-yl)-2-isopropylpentanoate], the IC50 in test [1] (setting [6]) amounted to 1110 ± 50 nM. The inhibition at 10 µM in test [1] (setting [5]) was 96.5 ± 1.7%.

As to `COC(=O)C(CCCN1CCN(Cc2ccc(C(F)(F)F)cc2)CC1)(c1ccc(Br)cc1)C(C)C` (centres unmarked) [Embodiment 34, methyl 2-(4-bromophenyl)-2-isopropyl-5-(4-(4-(trifluoromethyl)benzyl)piperazine-1-yl)pentanoate], the IC50 in test [1] was found to be 280 ± 20 nM. Besides, in test [1] (HEK293, read-out: % inhibition rate (10 μM)), the inhibition at 10 µM worked out at 93 ± 1.5%.

For the compound `COC(=O)C(CCCN1CCN(c2ccccc2OC)CC1)(c1ccc(Br)cc1)C(C)C` (centres unmarked) [Embodiment 35, methyl 2-(4-bromophenyl)-2-isopropyl-5-(4-(2-methoxyphenyl)piperazine-1-yl)pentanoate], the IC50 in test [1] (setting [4]) was 95 ± 14.8 nM. The inhibition at 10 µM in test [1] (setting [5]) was 94.1 ± 1.5%.

Consider `COC(=O)C(CCCN1CCN(Cc2ccc(OC)cc2)CC1)(c1ccc(Br)cc1)C(C)C` (centres unmarked) [Embodiment 38, methyl 2-(4-bromophenyl)-2-isopropyl-5-(4-(4-methoxybenzyl)piperazine-1-yl)pentanoate], for which the IC50 in test [1] (setting [6]) came to 480 ± 80 nM. Moreover, the inhibition at 10 µM in test [1] (setting [5]) was found to be 96 ± 1.7%.

As to `COC(=O)C(CCCN1CCN(Cc2ccc(OC)c(OC)c2OC)CC1)(c1ccc(Br)cc1)C(C)C` (centres unmarked) [Embodiment 39, methyl 2-(4-bromophenyl)-2-isopropyl-5-(4-(2,3,4-trimethoxybenzyl)piperazine-1-yl)pentanoate], the IC50 in test [1] (setting [6]) stood at 320 ± 10 nM. The inhibition at 10 µM in test [1] (setting [5]) came to 95.1 ± 1.9%.

Take `COC(=O)C(CCCN1CCN(Cc2cccc(C)c2)CC1)(c1ccc(Br)cc1)C(C)C` (centres unmarked) [Embodiment 40, methyl 2-(4-bromophenyl)-2-isopropyl-5-(4-(3-methylbenzyl)piperazine-1-yl)pentanoate]: the IC50 in test [1] (setting [6]) stood at 390 ± 30 nM. Also, the inhibition at 10 µM in test [1] (setting [5]) was found to be 94.9 ± 1.5%.

Regarding `CCC1(C)CC(=O)NC1=O` (centres unmarked) [Ethosuximide], the “reversal of mechanic and thermal induction” value in test [2] was “dosage-dependent reversed mechanic and thermal induction”.

`COCC(=O)O[C@]1(CCN(C)CCCc2nc3ccccc3[nH]2)CCc2cc(F)ccc2[C@@H]1C(C)C` [mibefradil]: the inhibition at 10 µM in test [1] (setting [5]) is 95.9 ± 1.7%. Also, in test [3], the “more inhibitory activity to the T-type than to the L-type” value is 10 to 30 times. In test [2], the “reversal of mechanic and thermal induction” value was “dosage-dependent reversed mechanic and thermal induction”.
